From PMC11416940, “Identification and characterization of a small molecule BFstatin inhibiting BrpR, the transcriptional regulator for biofilm formation of Vibrio vulnificus” (Frontiers in Microbiology, 2024) come the findings set out here.

This assay has as its target T1, BrpR.
T1 construct: His6-tagged BrpR (brpR gene on pET-28a(+), expressed in E. coli BL21 (DE3))
Nature of the assay: microscale thermophoresis (MST) with labeled purified His6-BrpR; supported by EMSA inhibition of promoter DNA binding. Also noted: species or system Vibrio vulnificus.

As for `CCCNC(=O)CC(=O)Nc1cc(F)ccc1Cl` [175C05, N1-(2-chloro-5-fluorophenyl)-N3-propylmalonamide], the equilibrium dissociation constant (Kd) turned out to be 7.14 µM.
